Data taken from publication PMC4326127, “Collagen Inhibitory Peptide R1R2 Mediates Vascular Remodeling by Decreasing Inflammation and Smooth Muscle Cell Activation” (PLoS ONE, 2015).

Columns and labels:
[1] = system: FN; assay: IHC for FN in ligated carotid artery; assay type: in vivo, FVB/NJ (FVB) mice; conditions: mean ± SEM
Procedure: (§1) Animals were anesthetized with isoflurane inhalation. The left common carotid artery was exposed, dissected free from the surrounding connective tissue and completely ligated with 6-0 silk suture just proximal to the carotid bifurcation. […] 4–10 mice were included in each experimental group.
(§2) Paraffin sections selected from the first mm of the carotid artery in each group were used for immunohistochemistry (IHC). […] Sections were then incubated with appropriate biotinylated secondary antibodies followed by avidin-biotin immunoperoxidase system (Vector Laboratories, Burlingame, CA). Liquid DAB Substrate Chromogen system (Dako, Carpinteria, CA) was used for detection.
(§3) Quantitative IHC analysis was performed on digital images captured with a 20x objective by using Image-Pro Plus software. Data from 3–6 mice for each group were averaged, and the average values ± SEM were shown. For FN, collagen type I, SM-MHC and SM α-actin, color digital images were transformed into gray scale, and the sum of the optical densities from the intima+media area in each section was determined. […] The percent of positive cells is reported as the proliferation index. […] The intima+media region was traced manually. The percent of positively stained area in intima+media to the total traced area was assessed.
(§4) For in vivo experiments, the data are shown as the mean ± SEM. For in vitro experiments, the data shown are the means ± SD of a representative experiment, at least 3 independent experiments were performed. One-way ANOVA with post-hoc testing were used for data analysis with GraphPad Prism software (GraphPad, San Diego, CA). If normality test failed, nonparametric Kruskal-Wallis test followed by Dunn's post-hoc test were used. P > 0.05 was not considered significant.

[2] = system: CD45 (+) leukocytes; assay: CD45 IHC, leukocyte infiltration in carotid intima-media; assay type: in vivo, FVB/NJ (FVB) mice; conditions: 7 days after ligation; percent of positively stained area; mean ± SEM; R1R2 n = 5, scrambled n = 6
Procedure: as §1, §2, §3, §4

[3] = system: collagen; assay: Hydroxyproline assay of carotid collagen content; assay type: in vivo, FVB/NJ (FVB) mice; conditions: 14 days post-ligation; three carotid arteries pooled per group; colorimetric chloramine T; mean ± SEM, n = 3
Procedure: as §1
After reconstituting with water, samples were measured using a colorimetric chloramine T assay. Three independent experiments were performed for statistical analysis.
as §4

[4] = system: A7r5 SMCs; assay: A7r5 SMC growth study; assay type: cell-based; conditions: 48hr; 10% FBS after serum starvation and 36 hours peptide treatment; hemocytometer, trypan blue; mean ± SD, n = 5
Procedure: (§5) Human umbilical vein endothelial cells (HUVECs) and A7r5 SMCs were provided by Resource Center (SB3, NSC 100-2325-B-080-001), National Research Program for Biopharmaceuticals (Hsinchu, Taiwan). HUVECs were maintained in M199 (Life Technologies, Carlsbad, CA) with 25U/ml heparin (Sigma-Aldrich, St. Louis, MO), 10% fetal bovine serum (FBS) and endothelial cell growth supplement (ECGS; Millipore, Billerica, MA). A7r5 SMCs were grown in Dulbecco’s Modified Eagle’s Medium (DMEM) containing high glucose, supplemented with 10% fetal bovine serum. Human U937 cells were grown in RPMI1640 with 10% FBS.
A7r5 cells and HUVECs were growth-arrested and then stimulated with 10% FBS or 10 ng/ml TNF-αovernight after serum starvation as indicated in the figure legend. Briefly, trypan blue-excluding cells were counted with a hemocytometer, and data were analyzed using GraphPad Prism Software (San Diego, CA) as in previous studies. A second observer performed a similar analysis to verify the initial findings.
as §4
Fig 6 R1R2 reduces SMC proliferation and migration. (A) A7r5 SMC growth study over 96 hours. After serum starvation and treatment with R1R2 or scrambled peptides for 36 hours, cells were stimulated with 10% FBS over 96 hours. Cells were counted at the indicated time in the figure (n = 5). (B) A7r5 SMCs were pretreated with R1R2 or scramble peptide for 36 hours. […] (C) Quantitation of SMC migration in the scratch wound healing assay was performed by subtracting the cell-free area 30 hours after PDGF-BB stimulation from the cell-free area in the beginning (n = 5). * indicates p<0.05 and ** p< 0.01.

[5] = system: left common carotid artery (flow-induced vascular remodeling); assay: Morphometric analysis of carotid artery after complete common carotid ligation; assay type: in vivo, FVB/NJ (FVB) mice; conditions: periadventitial
From the text: as §1
5 groups of animals were processed for morphometric analysis. Mice were fixed with 10% formalin 7 or 14 days after the surgery. The common carotid arteries were harvested and embedded in paraffin.
as §4

[6] = system: A7r5 SMCs; assay: SMC migration, scrape wound assay; assay type: cell-based; conditions: A7r5 SMCs, 36 hours peptide pretreatment, 10 ng/ml PDGF-BB, 30 hours; mean ± SD, n = 3
Procedure: as §5
A scrape wound assay was used to assess the effect of R1R2 and scrambled peptides on SMC migration as described. Briefly, A7r5 SMCs were grown until 90% confluent, followed by serum starvation and treatment with R1R2 and scrambled peptides for 36 hours. Several scrape wounds were then performed across the dish with a sterile yellow pipet tip. We initiated the experiment with treatment of cells with 10 ng/ml PDGF-BB. Photographs of the wound area were taken immediately after PDGF-BB addition (0 hour) and 30 hours postwounding with an Olympus CKX-41 microscope connected to a camera. At least three photographs were taken per group at each time point. Wound areas were determined using Image-Pro Software (Media Cybernetics, MD). Measurement of migration was determined by subtracting the cell-free area 30 hours after PDGF-BB addition from the cell-free area in the beginning of scrape wounds.
For in vivo experiments, the data are shown as the mean ± SEM. For in vitro experiments, the data shown are the means ± SD of a representative experiment, at least 3 independent experiments were performed. […]
Fig 6 R1R2 reduces SMC proliferation and migration. […] Cells were counted at the indicated time in the figure (n = 5). […] (C) Quantitation of SMC migration in the scratch wound healing assay was performed by subtracting the cell-free area 30 hours after PDGF-BB stimulation from the cell-free area in the beginning (n = 5). * indicates p<0.05 and ** p< 0.01.

[7] = system: smooth muscle α-actin (SMAA); assay: IHC for smooth muscle α-actin in ligated carotid artery; assay type: in vivo, FVB/NJ (FVB) mice; conditions: 7 days post-ligation; mean ± SEM; scrambled n = 6, R1R2 n = 5 (sham 0.232 ± 0.011, n = 5)
Procedure: as §1, §2, §3
(§6) For in vivo experiments, the data are shown as the mean ± SEM. […]

[8] = system: U937 cells / HUVECs; assay: Monocyte U937 transendothelial migration assay; assay type: cell-based, human; conditions: HUVECs on 5um transwells, 10 ng/ml TNF-α; U937 1.5x10^5 cells/transwell, 1.5 hours at 37°C; fluorescence 485/535; mean ± SD
Procedure: as §4

[9] = system: collagen type I; assay: IHC for collagen type I in ligated carotid artery; assay type: in vivo, FVB/NJ (FVB) mice; conditions: 7 days after surgery; 20 μM peptide in pluronic gel; mean ± SEM; R1R2 n = 6, scrambled n = 6
Procedure: as §1, §2, §3, §6

[10] = system: VCAM-1; assay: VCAM-1 IHC in ligated carotid artery; assay type: in vivo, FVB/NJ (FVB) mice; conditions: 7 days after ligation; percent of positively stained area; mean ± SEM; R1R2 n = 7, control peptide n = 9
Procedure: as §1, §2, §3, §6

[11] = system: binding of FN to collagen type I; assay: Solid-phase binding assay (competitive ELISA) of FN to collagen; parameters: species or system human FN; rat collagen type I; conditions: 4 nM FN incubated with peptide at 4°C overnight, then on wells coated with 10 μg/ml collagen I overnight at 37°C; anti-FN/HRP, ABTS, A405
Procedure: Human FN and rat collagen type I for competitive ELISA were purchased from Sigma-Aldrich (St. Louis, MO).
The FN-peptide solutions were added to collagen or BSA-coated wells, and the plates were incubated overnight at 37°C. The wells were washed and a rabbit anti-FN antibody was added for 90 minutes at room temperature. Wells were washed and then incubated with a horseradish peroxidase-conjugated secondary antibody. After washing was completed, peroxidase activity was quantified using 2,2'-azino-bis-(3-ethylbenthiazoline-6-sulfonic acid). Measurements were done at 405 nm (A405) using a SpectraMax M5 microplate reader (Molecular Device, Sunnyvale, CA).
Bound FN was detected with an anti-FN antibody followed by HRP-conjugated secondary antibody, and ABTS as described in Methods. The absorbance at 405nm was quantitated.

[12] = system: ICAM-1; assay: ICAM-1 IHC in ligated carotid artery; assay type: in vivo, FVB/NJ (FVB) mice; conditions: 7 days after ligation; percent of positively stained area; mean ± SEM; R1R2 n = 7, control peptide n = 8
Procedure: as §1, §2, §3, §6

[13] = system: U937 cells / HUVECs; assay: Monocyte U937 adhesion to HUVECs; assay type: cell-based, human; conditions: HUVECs treated with 10 ng/ml TNF-α; calcein-AM U937 5x10^5 cells/well, 30 minutes at 37°C; fluorescence 485/535; mean ± SD
Procedure: as §4

[14] = 7 day after ligation, 20 μM peptide in 50 μl F-127 pluronic gel, mean ± SEM, scrambled n = 4, R1R2 n = 10
[15] = 14 day after ligation, 20 μM peptide in 50 μl F-127 pluronic gel, mean ± SEM, scrambled n = 4, R1R2 n = 9

PGPGAEQPEQSKERNSQERGNGLALPGEELEGQEGGNKPSGENNGPPQGNLRGPLEG [scrambled peptide, reference compound]
FN IHC intensity in intima-media area ([1]; 7 days after ligation, R1R2 n = 6, scrambled n = 6): 0.144 ± 0.005 | FN IHC intensity in intima-media area ([1]; 14 days after ligation, R1R2 n = 7, scrambled n = 7): 0.338 ± 0.016 | CD45 (+) area in intima-media [2]: 0.441 ± 0.049% | collagen content, hydroxyproline assay [3]: 2.133 ± 0.284 | A7r5 SMC growth, cell number [4]: 2.740 ± 0.688 x 10^5 | effect on neointimal formation ([5]; 7 and 14 days post-ligation, 20 μM peptide in pluronic gel, in words): have no effect on neointimal formation | EEL Area [5, 14]: 91403 ± 3805 (n = 4) μm^2 | Lumen [5, 14]: 44901 ± 4552 (n = 4) μm^2 | EEL Area [5, 15]: 92240 ± 13572 (n = 4) μm^2 | Intima+Media [5, 15]: 65441 ± 11973 (n = 4) μm^2 | Lumen [5, 15]: 37551 ± 11976 (n = 4) μm^2 | SMC migration (cell-free area at 0 h minus cell-free area at 30 hours) [6]: 313537 ± 66925 | SMAA IHC staining in intima-media area [7]: 0.176 ± 0.004 | U937 transendothelial migration [8]: 110055 ± 42517 cells per well | collagen type I IHC intensity in intima-media area [9]: 0.198 ± 0.007 | VCAM-1 (+) area in intima-media [10]: 25.72 ± 1.966% | effect on FN-collagen type I binding [11]: had no effect on FN-collagen binding | ICAM-1 (+) area in intima-media [12]: 30.39 ± 3.016% | U937 adhesion to HUVECs [13]: 259093 ± 14720 cells per cm^2
